Measurements: patent publication US6841661B2, “Glycopeptide antibacterial compounds, compositions containing same and methods of using same” (Princeton Univerisity, priority 1999, dated 2005)
Converted amounts (≈) assume the structure as drawn. Like-named read-outs stand apart in the source and are kept apart here.

What was measured:
[1] = test system: MSSA MB2985 (Smith isolate); experiment: In vitro MIC panel assay, without and with Human Serum Albumin; type: cell-based, Staphylococcus aureus
Description: (§1) National Committee for Clinical Laboratory Standards (NCCLS) guidelines [Methods for Dilution Antimicrobial Susceptibility Tests for Bacteria that Grow Aerobically-Fourth Edition; Approved Standard (NCCLS Document M7-A4, January 1997)] are used to establish the assay, although variations are made to optimize the published method according to the specific needs of the present investigation.
(§2) The test panel currently includes eight enterococci and 13 staphylococci, which are selected based upon their antibiotic susceptibility profiles. The methicillin-sensitive Staphylococcus aureus (MSSA) strain MB2985 (Smith isolate) is used to assesses the potential for serum protein binding of the compounds. The paired Gram-negative strains ASP #49 (envA-) and ASP #50 (envA+) (M. Salvatore/N. Lee) are included to judge membrane effects. Table 3 presents a detailed description of the strains included in the panel, including some of the sources of the strains of bacteria.
(§3) The glycopeptide antibiotic teicoplanin is included whenever possible. […]
(§4) The number of CFU/mL is determined on BHI agar plates, although this is not done routinely because titers of overnight cultures are relatively constant. […]

[2] = test system: E. faecium CL 4931 (VanA); experiment: microbe, parasite or virus in culture; type: cell-based; details: for MIC, CL4931: E. faecium CL 4931 (VanA)
Method in brief: (§5)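 Twofold broth microdilution per modified NCCLS M7-A4, 35 °C. Enterococci and VISA/MRSA in BHI (VISA/MRSA precultured in TSB + 10% HS), E. coli in MH II. Inocula ~1-5×10^6 CFU/ml for enterococci, ~3-7×10^5 CFU/ml otherwise. MIC is the lowest concentration with no visible growth, read at 18-20 hr (E. coli) or 22-24 hr.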

[3] = test system: VISA/MRSA CL 5705; experiment: In vitro MIC panel assay (NCCLS broth microdilution); type: cell-based, S. aureus; details: Staphylococcus aureus
Description: as §1, §2, §3, §4

[4] = test system: VISA/MRSA CL 5706; experiment: as above; type: cell-based, S. aureus; details: Staphylococcus aureus
Description: as §1, §2, §3, §4

[5] = test system: CL 4931, CL 5053, CL 5242 and CL 4877; type: cell-based, E. faecium, E. faecalis
Method in brief: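 NCCLS-based microdilution, 35 °C. Media: BHI for VanB E. faecalis and VISA/MRSA, MH II for E. coli envA-. Inoculum: enterococci ~1-5×10^6 CFU/ml, others ~3-7×10^5 CFU/ml. Growth read at 22-24 hr (E. coli 18-20 hr).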

[6] = test system: S. aureus MB 2985; experiment: MIC by microdilution in Mueller-Hinton broth (in vivo study); type: cell-based; details: Staphylococcus aureus, MB2985, inoculum 1.4 × 10^5 cfu/mL in cation adjusted MHB, read-out: MIC
Description: The MIC is determined by microdilution in Mueller-Hinton broth (MHB) according to the National Committee for Clinical Laboratory Standards guidelines after incubation for 24 hours. Enterococci are tested in cation-supplemented Mueller-Hinton broth at 1.4×10^5 cfu/ml. MIC is defined as the lowest concentration of antibiotic, which inhibits visible growth.

[7] = test system: E. faecium CL 5242 (VanA); experiment: microbe, parasite or virus in culture; type: cell-based; details: for MIC, CL5242: E. faecium CL 5242 (VanA)
Method in brief: as §5

[8] = test system: MRCNS CL 546 (S. hom.); experiment: In vitro MIC panel assay (NCCLS broth microdilution); type: cell-based
Description: as §1, §2
(§6) The glycopeptide antibiotic teicoplanin is included whenever possible.
(§7) TSB, containing 10% HS* for vancomycin intermediate S. aurcus/methicillin-resistant S. aureus (VISA/MRSA) strains, is inoculated from an appropriate source (frozen broth or agar slant) and grown approximately 17 hr at 35° C. with shaking at 220 rpm. Cultures are grown in tubes with a volume of 5 ml for enterococci and 2 ml for all other strains.
(§8) Four milliliter (4 ml) overnight culture is added to 36 ml physiological saline to obtain tenfold dilutions (enterococci). Overnight culture (0.4 ml) is added to 39.6 ml saline to obtain 100-fold dilutions (all strains except enterococci). Diluted cultures are maintained on ice until time of inoculation of test plates.
(§9) The number of CFU/mL is determined on BHI agar plates, although this is not done routinely because titers of overnight cultures are relatively constant. The test media include: • BHI for enterococci and VISA/MRSA; • MH II (i.e., cation-adjusted Mueller-Hinton broth) for MRS, MSS and E. coli.; • MH II+HSA for MSSA is prepared as follows: • a. 2×MHII+86mg/ml HSA • b. Dissolve 4.3 g HSA in 50 ml autoclaved 2x MH II. • c. pH to 7.0 by adding 2M MOPS, sodium. • d. Filter sterilize using 0.22 μm Coming cellulose acetate filter, used because of reported low protein binding. • e. 1×MH II+43 mg/ml HSA • f. Dilute the 2×medium twofold and filter as above. 5.8.6. Preparation of Test Plates
(§10) Using a Denley liquid handling system (or similar automatic device), 100 μ1×medium is added to each well in columns 2-12 of a 96-well microtiter dish. Using a multichannel pipettor, 100 μl 2×medium is added to each well in column 1. Plates may be filled on the day prior to assay, wrapped in plastic bags and refrigerated.
(§11) Vancomycin, Schering 29482, and teicoplanin are prepared on a weight per volume basis using 10 mM 3-(N-morpholino)propane-sulfonic acid (MOPS) buffer pH 7. Test compounds are received in solution in appropriate solvent (typically as 1 mg/ml in DMSO) or are dissolved in appropriate solvent prior to further dilution in 10 mM MOPS buffer, ph7. Consistent with NCCLS guidelines, antibiotics are handled aseptically but are not otherwise sterilized.
(§12) 100 μl appropriately diluted antibiotic solution is added to the first well of the designated row of the 96-well microtiter dish and serially diluted by twofold across the row using the Denley liquid handling system. With the aid of a Dynatech NEC 2000 inoculator, each well of the microtiter dish is inoculated with 1.5 μl diluted overnight culture, yielding approximately 1-5×10^6 CFU/ml for enterococci and approximately 3-7×10^5 CFU/ml for all other strains. Dishes are placed in stacks of no more than five, wrapped in plastic bags and incubated at 35° C. • Indication of result(s) type (% INH, IC50, Zone size, etc.) • MIC=minimum inhibitory concentration ps 5.8.9. Interpretation of the Results on the Basis of Activity […]

[9] = test system: MRCNS CL 202 (S. haem.); experiment: as above; type: cell-based
Description: as §1, §2, §6, §7, §8, §9, §10, §11, §12

[10] = test system: E. gallinarum CL 4886 (VanC); experiment: as above; type: cell-based; details: Enterococcus gallinarum
Description: as §1, §2, §6, §7, §8, §9, §10, §11, §12

[11] = test system: MRSA CL 3033; experiment: as above; type: cell-based; details: Staphylococcus aureus
Description: as §1, §2, §6, §7, §8, §9, §10, §11, §12

[12] = test system: E. coli ASP #49 (envA-); experiment: as above; type: cell-based; details: Escherichia coli
Description: as §1, §2, §6, §7, §8, §9, §10, §11, §12

[13] = test system: E. coli ASP #50 (envA+); experiment: as above; type: cell-based; details: Escherichia coli
Description: as §1, §2, §6, §7, §8, §9, §10, §11, §12

[14] = test system: E. faecium CL 5053 (VanA); experiment: microbe, parasite or virus in culture; type: cell-based; details: for MIC, CL5053: E. faecium CL 5053 (VanA)
Method in brief: as §5

[15] = % Plasma Bound; type: in vitro ADME

With `CN[C@H](CC(C)C)C(=O)N[C@H]1C(=O)N[C@@H](CC(N)=O)C(=O)N[C@H]2C(=O)N[C@H]3C(=O)N[C@H](C(=O)N[C@H](C(=O)O)c4cc(O)cc(O)c4-c4cc3ccc4O)[C@H](O)c3ccc(c(Cl)c3)Oc3cc2cc(c3O[C@@H]2O[C@H](CO)[C@@H](O)[C@H](O)[C@H]2O[C@H]2C[C@](C)(N)[C@H](O)[C@H](C)O2)Oc2ccc(cc2Cl)[C@H]1O` [Vancomycin, vancomycin, reference compound] the MIC ([1]; MSSA MB2985 + HSA, MH II broth ctg. 43 mg/ml Human Serum Albumin Frac. V) was 1 µg/mL, the “N-fold MIC inc. + HSA” value ([1]; MSSA MB2985, MIC with HSA relative to without) was “(1) fold” and the MIC ([2]; Enterococcus faecium) was 2050 µg/mL (≈ 1410 µM). The MIC, CL4931 ([2]; Table 9) was 2050 µg/mL (≈ 1410 µM), the MIC, CL4931 ([2]; Table 10) was 2050 µg/mL (≈ 1410 µM) and the “CL4931 (in vitro testing)” value ([2]; Tables 7 and 8, unit not given) was 2048. It also gave an MIC [3] of 2 to 4 µg/mL (≈ 1.38 to 2.76 µM), an MIC [4] of 4 to 8 µg/mL (≈ 2.76 to 5.52 µM) and a Mean ([5]; Table 9, mean MIC over CL4931, CL5053, CL5242, CL4877) of 1664.0. The Mean ([5]; Table 10, mean MIC over CL4931, CL5053, CL5242, CL4877) was 1536.0, the Mean ([5]; mean of CL4931, CL5053, CL5242, CL4877, unit not given) was 1664.0 and the MIC [6] was 0.5 µg/mL (≈ 0.345 µM). The MIC ([7]; Enterococcus faecium) was 128 µg/mL (≈ 88.3 µM), the MIC, CL5242 ([7]; Table 9) was 512 µg/mL (≈ 353 µM) and the MIC, CL5242 ([7]; Table 10) was 512 µg/mL (≈ 353 µM). The “CL5242 (in vitro testing)” value ([7]; Tables 7 and 8, unit not given) was 512, the MIC [8] was 1 µg/mL (≈ 0.69 µM) and the MIC [9] was 2 µg/mL (≈ 1.38 µM). For the same molecule, the MIC [10] was 16 µg/mL (≈ 11 µM), the MIC [11] was 0.5 to 1 µg/mL (≈ 0.345 to 0.69 µM) and the MIC [12] was 32 µg/mL (≈ 22.1 µM). For the same molecule, the MIC [13] was 256 µg/mL (≈ 177 µM), the MIC ([14]; Enterococcus faecium) was 2050 µg/mL (≈ 1410 µM) and the MIC, CL5053 ([14]; Table 9) was 2050 µg/mL (≈ 1410 µM). For the same molecule, the MIC, CL5053 ([14]; Table 10) was 2050 µg/mL (≈ 1410 µM), the “CL5053 (in vitro testing)” value ([14]; Tables 7 and 8, unit not given) was 2048 and the “% Plasma Bound” value [15] was 55%.
